From patent US8623995B2, “Peptide conjugates and fluorescence detection methods for intracellular caspase assay” (Applied Biosystems, LLC, priority 2001, dated 2014)
The star is where a group is joined. Cbz = O=C(OCc1ccccc1)*; CH2F = FC*

Legend:
[1] = system: Jurkat cells; assay: Intracellular caspase assay with peptide conjugate 9: apoptosis induction; type: cell-based, Human; settings: peptide conjugate 9 (FIG. 13)
Procedure: (§1) One method for introducing the peptide conjugates into cells to induce apoptosis and measure caspase activity includes the following steps: • 1. […] The cells will adhere to well bottoms in 1 to 24 hours. Any number of different sample cells or any combination of cells, inhibitors or apoptosis inducers can be assayed. Typically 10,000 cells per well are plated in about 100 μl of tissue culture media. • 2. Add an apoptosis inducer, e.g. camptothecin or staurosporine, dissolved in media and/or solvent. Different concentrations can be used to study dose-response. • 3. Let the cells stand for about 24 hours at 37° C., depending on the inducer. • 4. […] Let stand for about 90 minutes at 37° C. • 5. Transfer plates to a fluorescent plate reading device, cell sorter, flow cytometer, laser imager, microscope, or other device and read the content of the wells.
(§2) A data spreadsheet assigns numerical values of fluorescence intensity and peak heights. The greyscale image has intensity content, like an autoradiogram. […] The cells are simply counted by a cell counting algorithm as either blue or red depending on the ratio of channel 2 to channel 1 fluorescence intensity, and independent of intensity values. The fraction of apoptotic cells is determined by identifying the apoptotic population in each well and dividing by the total number of cells detected. […]

[2] = system: HeLa cells; assay: as above; type: cell-based, Human; settings: peptide conjugate 9 (FIG. 13)
Procedure: as §1, §2

[3] = target: T1, caspase (Homo sapiens, UniProt P42574); assay: Intracellular caspase assay on FMAT 8100: caspase inhibitors on cleavage of peptide conjugate 9 in NT-2 cells; type: cell-based; settings: inhibitor at 50 μM, NT-2 cells with CMP to induce apoptosis (FIG. 10)
T1 construct: endogenous in cells; host or cells: NT-2 cells
T1 sequence (P42574 29-175 limits assumed): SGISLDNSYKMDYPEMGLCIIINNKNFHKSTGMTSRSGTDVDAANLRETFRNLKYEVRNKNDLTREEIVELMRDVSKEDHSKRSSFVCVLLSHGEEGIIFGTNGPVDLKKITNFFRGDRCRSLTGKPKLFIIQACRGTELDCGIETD
T1 sequence (P42574 176-277 limits assumed): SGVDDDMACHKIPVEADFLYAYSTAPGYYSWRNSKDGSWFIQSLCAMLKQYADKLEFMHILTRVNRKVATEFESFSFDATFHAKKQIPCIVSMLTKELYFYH
Procedure: as §1
The plate was incubated at 37° C. for 90 minutes.

[4] = system: NT-2 cells; assay: Intracellular caspase assay on FMAT 8100 HTS System with peptide conjugate 9: apoptosis induction; type: cell-based, Human
Procedure: One method for introducing the peptide conjugates into cells to induce apoptosis and measure caspase activity includes the following steps: • 1. Plate the eukaryotic cells in RPMI 1640 media in the wells of a tissue culture-treated 96-well plate at 37° C. The cells will adhere to well bottoms in 1 to 24 hours. Any number of different sample cells or any combination of cells, inhibitors or apoptosis inducers can be assayed. Typically 10,000 cells per well are plated in about 100 μl of tissue culture media. • 2. Add an apoptosis inducer, e.g. camptothecin or staurosporine, dissolved in media and/or solvent. Different concentrations can be used to study dose-response. • 3. Let the cells stand for about 24 hours at 37° C., depending on the inducer. • 4. Add the peptide conjugate, dissolved in media and/or solvent in a range of 1 to 10 μM, e.g. 2.5 μM, to every well, including controls. Let stand for about 90 minutes at 37° C. • 5. Transfer plates to a fluorescent plate reading device, cell sorter, flow cytometer, laser imager, microscope, or other device and read the content of the wells.
A data spreadsheet assigns numerical values of fluorescence intensity and peak heights. The greyscale image has intensity content, like an autoradiogram. […] The cells are simply counted by a cell counting algorithm as either blue or red depending on the ratio of channel 2 to channel 1 fluorescence intensity, and independent of intensity values. The fraction of apoptotic cells is determined by identifying the apoptotic population in each well and dividing by the total number of cells detected. The ratio of red (channel 2) to blue (channel 1) inversely correlates to the apoptotic fraction. In other words:
[formula] […] Effects of introducing apoptosis inducers and caspase inhibitors to different cells under variable conditions can thus be measured by the mix-and-read protocols on the FMAT 8100 System. A dose response is determined when this fraction (% apoptotic) is plotted as a function of the concentration of camptothecin in the well (FIG. 11), and other apoptosis inducers (FIGS. 12 and 13). […]

CN[C@@H]1C[C@H]2O[C@@](C)([C@@H]1OC)n1c3ccccc3c3c4c(c5c6ccccc6n2c5c31)C(=O)NC4 [staurosporine]
Threshold concentration above which fraction of apoptotic cells correlates with concentration [1]: about 0.05 μM | Threshold concentration above which fraction of apoptotic cells correlates with concentration [2]: ~0.5 µM

Cbz-Val-Ala-Asp-CH2F
Suppression of cleavage of peptide conjugate 9 [3]: complete suppression

CC[C@@]1(O)C(=O)OCc2c1cc1n(c2=O)Cc2cc3ccccc3nc2-1 [camptothecin]
Induction of apoptosis / caspase activity (donor dye emission, channel 1) ([4]; 500 nM, peptide conjugate 9 (FIG. 9)): caspase activity is evident | Dose response: fraction of apoptotic cells ([4]; 0.0001 to 10 μM, 24 hours, peptide conjugate 9 (FIG. 11)): fraction of apoptotic cells correlates with camptothecin concentration

COc1cccc2c1C(=O)c1c(O)c3c(c(O)c1C2=O)C[C@@](O)(C(=O)CO)C[C@@H]3O[C@H]1C[C@H](N)[C@H](O)[C@H](C)O1 [doxirubicin]
Concentration above which most of the cells were detected as apoptotic ([4]; peptide conjugate 9 (FIG. 12)): about 0.1 μM
